Experimental findings from patent US11485742B2, “2-azaspiro[3.4]octane derivatives as M4 agonists” (NOVARTIS AG, priority 2019, dated 2022) are described below.

A value given as a limit tells only on which side of the number the result lay.

Holding throughout (type): cell-based
The target of assay [1] is T1, human cloned CHRM2 receptor (Homo sapiens, UniProt P08172).
T1 construct: expressed in transfected cells; host or cells: CHO-K1 (M2_CHO)
T1 sequence (P08172 1-466): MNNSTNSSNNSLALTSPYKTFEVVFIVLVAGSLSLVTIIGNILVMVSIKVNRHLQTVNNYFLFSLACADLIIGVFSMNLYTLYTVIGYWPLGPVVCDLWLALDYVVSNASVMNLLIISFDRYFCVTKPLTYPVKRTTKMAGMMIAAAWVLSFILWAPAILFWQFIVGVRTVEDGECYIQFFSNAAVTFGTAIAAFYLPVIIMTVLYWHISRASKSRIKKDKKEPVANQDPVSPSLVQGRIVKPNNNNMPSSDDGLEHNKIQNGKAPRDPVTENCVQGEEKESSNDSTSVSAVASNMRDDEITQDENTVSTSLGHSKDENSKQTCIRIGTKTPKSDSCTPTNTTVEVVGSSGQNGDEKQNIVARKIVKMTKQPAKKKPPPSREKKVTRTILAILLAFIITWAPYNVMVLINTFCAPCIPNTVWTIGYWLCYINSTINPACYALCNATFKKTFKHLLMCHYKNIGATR
Briefly: CHRM2 Ca++ Flux Assay (M2_CHO cells, agonist mode). The conditions noted are these: M2 CHO cells; for EC50: agonist mode, geometric mean if tested more than once, read-out: M2 FDSS EC50; for M2 FDSS PA % / Emax: Percent Activity (PA) measured to EC100 of Carbachol; for Emax: read-out: M2 FDSS PA %. In outline: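 Agonist activity was expressed as percent of the carbachol EC100 response, fitted by four-parameter regression on triplicate wells, with geometric means across repeat runs. Calcium traces over 3 minutes came from dye-loaded M2_CHO cells (12K/well) pre-incubated 60 min in Ca/Mg-free HBSS with 20 mM HEPES, 2.5 mM probenecid and 20 μM ATP.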

Assay [2] concerns the target T2, human cloned CHRM3 receptor (Homo sapiens, UniProt P20309).
T2 construct: expressed in transfected cells; host or cells: CHO-K1 (M3_CHO)
In words: CHRM3 Ca++ Flux Assay (M3_CHO cells, agonist mode). The settings on record: for M3 FDSS PA % / Emax: Percent Activity (PA) measured to EC100 of Carbachol; for EC50: agonist mode, geometric mean if tested more than once, read-out: M3 FDSS EC50; for Emax: read-out: M3 FDSS PA %. In outline:
(§1)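 Agonist-mode calcium mobilisation: compounds, 11 concentrations in triplicate, applied to stable M3_CHO or M5_CHO cells loaded with Ca++ dye, fluorescence followed 3 min. Efficacy expressed against carbachol EC100; EC curves by four-parameter nonlinear regression, geometric mean across independent runs.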

Assay [3] has as its target T3, human cloned CHRM5 receptor (Homo sapiens, UniProt P08912).
T3 construct: expressed in transfected cells; host or cells: CHO (M5_CHO)
T3 sequence (P08912 1-532): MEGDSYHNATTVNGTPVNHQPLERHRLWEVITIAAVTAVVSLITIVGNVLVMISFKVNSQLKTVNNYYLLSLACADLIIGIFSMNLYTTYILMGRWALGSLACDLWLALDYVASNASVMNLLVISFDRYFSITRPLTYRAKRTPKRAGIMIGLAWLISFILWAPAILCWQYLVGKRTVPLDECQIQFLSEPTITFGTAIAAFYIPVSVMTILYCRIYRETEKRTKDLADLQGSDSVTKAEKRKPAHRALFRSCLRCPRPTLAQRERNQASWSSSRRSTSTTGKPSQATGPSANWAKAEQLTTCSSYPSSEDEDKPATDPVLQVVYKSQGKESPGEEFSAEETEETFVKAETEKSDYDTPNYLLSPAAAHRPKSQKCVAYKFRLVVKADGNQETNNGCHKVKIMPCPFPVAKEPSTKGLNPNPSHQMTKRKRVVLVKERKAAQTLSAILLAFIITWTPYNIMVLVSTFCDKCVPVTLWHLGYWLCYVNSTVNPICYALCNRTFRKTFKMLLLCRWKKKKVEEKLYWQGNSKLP
Briefly: CHRM5 Ca++ Flux Assay (M5_CHO cells, agonist mode). The settings on record: for M5 FDSS PA % / Emax: Percent Activity (PA) measured to EC100 of Carbachol; for EC50: agonist mode, geometric mean if tested more than once, read-out: M5 FDSS EC50; for Emax: read-out: M5 FDSS PA %. Summed up: as §1

T2 sequence (P20309 whole entry): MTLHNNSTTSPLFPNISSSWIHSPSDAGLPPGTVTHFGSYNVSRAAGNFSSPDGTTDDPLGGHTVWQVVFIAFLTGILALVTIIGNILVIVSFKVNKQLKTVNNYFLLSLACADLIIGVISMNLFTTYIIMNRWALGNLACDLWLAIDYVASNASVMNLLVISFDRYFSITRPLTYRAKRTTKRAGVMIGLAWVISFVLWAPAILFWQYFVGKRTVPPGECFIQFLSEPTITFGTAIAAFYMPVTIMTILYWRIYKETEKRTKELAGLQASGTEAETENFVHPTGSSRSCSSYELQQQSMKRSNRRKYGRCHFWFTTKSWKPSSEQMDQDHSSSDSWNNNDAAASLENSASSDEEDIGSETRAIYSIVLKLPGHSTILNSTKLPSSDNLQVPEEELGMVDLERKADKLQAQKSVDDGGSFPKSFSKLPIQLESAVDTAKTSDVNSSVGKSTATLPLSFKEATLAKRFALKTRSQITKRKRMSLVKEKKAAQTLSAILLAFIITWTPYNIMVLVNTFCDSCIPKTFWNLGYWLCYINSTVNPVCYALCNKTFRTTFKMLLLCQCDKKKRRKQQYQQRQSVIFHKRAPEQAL

A word on the EC50: it is the concentration giving half of the maximal effect. `CC(C)(O)[C@H]1C[C@@H](Oc2ccc(F)cc2C2CCN([C@@H]3COC4(C3)CN(c3ncco3)C4)CC2)C1` (single isomer, unassigned) [Example 4U, 2-((1R,3s)-3-(4-fluoro-2-(1-((S)-2-(oxazol-2-yl)-5-oxa-2-azaspiro[3.4]octan-7-yl)piperidin-4-yl)phenoxy)cyclobutyl)propan-2-ol or 2-((1S,3r)-3-(4-fluoro-2-(1-((S)-2-(oxazol-2-yl)-5-oxa-2-azaspiro[3.4]octan-7-yl)piperidin-4-yl)phenoxy)cyclobutyl)propan-2-ol]: in assay [1], the 50% effective concentration (EC50) turned out to be 15.2 µM and the “M2 FDSS PA %” value was found to be 38%. Moreover, in assay [2], the “M3 FDSS PA %” value was determined as 0% and the EC50 is more than 25 µM. For the same compound, in assay [3], the “M5 FDSS PA %” value was found to be 0% and the EC50 is more than 25 µM.

As for `Fc1ccc(OC[C@@H]2CCOC2)c(C2CCN([C@@H]3COC4(C3)CN(c3nnco3)C4)CC2)c1` [Example 1B, (S)-7-(4-(5-fluoro-2-(((R)-tetrahydrofuran-3-yl)methoxy)phenyl)piperidin-1-yl)-2-(1,3,4-oxadiazol-2-yl)-5-oxa-2-azaspiro[3.4]octane], the EC50 in assay [1] was 0.492 µM; in assay [2], more than 25 µM; in assay [3] it was more than 25 µM. In addition, the Emax in assay [1] turned out to be 39%; in assay [2] it was 0%; in assay [3], 0%.

Regarding `Fc1ccc(O[C@H]2CCCOC2)c(C2CCN([C@@H]3COC4(C3)CN(c3nnco3)C4)CC2)c1` (single isomer, unassigned) [Example 2Q, (S)-7-(4-(5-fluoro-2-(((S)-tetrahydro-2H-pyran-3-yl)oxy)phenyl)piperidin-1-yl)-2-(1,3,4-oxadiazol-2-yl)-5-oxa-2-azaspiro[3.4]octane or (S)-7-(4-(5-fluoro-2-(((R)-tetrahydro-2H-pyran-3-yl)oxy)phenyl)piperidin-1-yl)-2-(1,3,4-oxadiazol-2-yl)-5-oxa-2-azaspiro[3.4]octane], in assay [1], the EC50 worked out at 1.16 µM and the “M2 FDSS PA %” value turned out to be 26%. Also, in assay [2], the “M3 FDSS PA %” value is listed as 0% and the EC50 is more than 25 µM. For the same compound, in assay [3], the “M5 FDSS PA %” value is listed as 0% and the EC50 was more than 25 µM.

For `Fc1cc(F)c(OCC2COC2)c(C2CCN([C@@H]3COC4(C3)CN(c3nnco3)C4)CC2)c1` [Example 2DD, (S)-7-(4-(3,5-difluoro-2-(oxetan-3-ylmethoxy)phenyl)piperidin-1-yl)-2-(1,3,4-oxadiazol-2-yl)-5-oxa-2-azaspiro[3.4]octane], the figures for the concentration giving a half-maximal response (EC50) in assay [1], in assay [2] and in assay [3] were 6.76 µM, more than 25 µM and more than 25 µM, respectively. Besides, the Emax in assay [1] amounted to 23%; in assay [2] it was 0%; in assay [3], 0%.

Regarding `Fc1cc(OCC2(F)COC2)c(C2CCN([C@@H]3COC4(C3)CN(c3ncco3)C4)CC2)cc1F` [Example 4P, (S)-7-(4-(4,5-difluoro-2-((3-fluorooxetan-3-yl)methoxy)phenyl)piperidin-1-yl)-2-(oxazol-2-yl)-5-oxa-2-azaspiro[3.4]octane], the concentration giving a half-maximal response (EC50) in assay [1] is 10.5 µM; in assay [2], more than 25 µM; in assay [3] it was more than 25 µM. The Emax in assay [1] amounted to 28%; in assay [2], 0%; in assay [3], 0%.

Take `CC(C)(O)COc1ccc(F)cc1C1CCN([C@@H]2COC3(C2)CN(c2nncs2)C3)CC1` [Example 5U, (S)-1-(2-(1-(2-(1,3,4-thiadiazol-2-yl)-5-oxa-2-azaspiro[3.4]octan-7-yl)piperidin-4-yl)-4-fluorophenoxy)-2-methylpropan-2-ol]: the half-maximal effective concentration (EC50) in assay [1] is 0.483 µM; in assay [2], more than 25 µM; in assay [3] it was more than 25 µM. Further, the Emax in assay [1] turned out to be 17%; in assay [2] it was 0%; in assay [3], 0%.

On to `c1ccc(C2CCN([C@@H]3COC4(C3)CN(c3ncco3)C4)CC2)c(OC2COC2)c1` [Example 4C, (S)-2-(oxazol-2-yl)-7-(4-(2-(oxetan-3-yloxy)phenyl)piperidin-1-yl)-5-oxa-2-azaspiro[3.4]octane], for which the EC50 in assay [1] is 0.433 µM; in assay [2] it was more than 25 µM; in assay [3], more than 25 µM. Moreover, the values for the Emax in assay [1], in assay [2] and in assay [3] were 38%, 0% and 0%, respectively.

In the case of `COc1cc(F)ccc1C1CCN([C@@H]2COC3(C2)CN(c2ncns2)C3)CC1` [Example 5E, (S)-7-(4-(4-fluoro-2-methoxyphenyl)piperidin-1-yl)-2-(1,2,4-thiadiazol-5-yl)-5-oxa-2-azaspiro[3.4]octane], the half-maximal effective concentration (EC50) in assay [1] was more than 25 µM; in assay [2], more than 25 µM; in assay [3], 13 µM. The Emax in assay [1], in assay [2] and in assay [3] was 0% throughout.

In the case of `Fc1ccc(OC[C@@H]2CCOC2)c(C2CCN([C@@H]3COC4(C3)CN(c3nncs3)C4)CC2)c1` [Example 5I, (S)-7-(4-(5-fluoro-2-(((R)-tetrahydrofuran-3-yl)methoxy)phenyl)piperidin-1-yl)-2-(1,3,4-thiadiazol-2-yl)-5-oxa-2-azaspiro[3.4]octane], the EC50 was 0.545 µM in assay [1], more than 25 µM in assay [2] and more than 25 µM in assay [3]. Also, the Emax was 43% in assay [1], 0% in assay [2] and 0% in assay [3].

`Fc1ccc(OC2CC3(COC3)C2)c(C2CCN([C@@H]3COC4(C3)CN(c3ncco3)C4)CC2)c1` [Example 4G, (S)-7-(4-(2-((2-oxaspiro[3.3]heptan-6-yl)oxy)-5-fluorophenyl)piperidin-1-yl)-2-(oxazol-2-yl)-5-oxa-2-azaspiro[3.4]octane]: the EC50 in assay [1] was 13.1 µM; in assay [2], more than 25 µM; in assay [3] it was more than 25 µM. Also, the Emax in assay [1] turned out to be 58%; in assay [2] it was 0%; in assay [3], 0%.

As for `Fc1ccc(OC[C@H]2COCCO2)c(C2CCN([C@@H]3COC4(C3)CN(c3ncco3)C4)CC2)c1` [Example 4B, (S)-7-(4-(2-(((R)-1,4-dioxan-2-yl)methoxy)-5-fluorophenyl)piperidin-1-yl)-2-(oxazol-2-yl)-5-oxa-2-azaspiro[3.4]octane], the concentration giving a half-maximal response (EC50) in assay [1], in assay [2] and in assay [3] was more than 25 µM in each case. In addition, the Emax in assay [1] was found to be 32%; in assay [2], 0%; in assay [3], 0%.

For `Fc1cc(OC2CCOCC2)c(C2CCN([C@@H]3COC4(C3)CN(c3nnco3)C4)CC2)cc1F` [Example 2GG, (S)-7-(4-(4,5-difluoro-2-((tetrahydro-2H-pyran-4-yl)oxy)phenyl)piperidin-1-yl)-2-(1,3,4-oxadiazol-2-yl)-5-oxa-2-azaspiro[3.4]octane], the half-maximal effective concentration (EC50) in assay [1], in assay [2] and in assay [3] was more than 25 µM throughout. In addition, the Emax in assay [1], in assay [2] and in assay [3] was 0% in each case.

With `Fc1ccc(OC[C@@H]2COCCO2)c(C2CCN([C@@H]3COC4(C3)CN(c3nnco3)C4)CC2)c1` [Example 1F, (S)-7-(4-(2-(((S)-1,4-dioxan-2-yl)methoxy)-5-fluorophenyl)piperidin-1-yl)-2-(1,3,4-oxadiazol-2-yl)-5-oxa-2-azaspiro[3.4]octane], the EC50 was 0.39 µM in assay [1], more than 25 µM in assay [2] and more than 25 µM in assay [3]. In addition, the Emax was 31% in assay [1], 0% in assay [2] and 0% in assay [3].
